Results on 2 compounds are retold here after US9277761B2, “Nutrition trace element composition” (priority 2003, dated 2016).

The conditions of data set [1]: in vivo; cited from earlier work.
Data set [2] relates to T-lymphocytes and natural killer cells. Conditions: humans, 200 μg of selenium a day for eight weeks; cited from earlier work.
A further data set has as its system humans. Conditions: cited from earlier work.
In the next data set the test system is guinea pigs. Conditions: peroral administration; cited from earlier work.
The conditions of data set [3]: oral administration of 1 mg of sodium selenite; cited from earlier work.
A further data set deals with mice. Conditions: cited from earlier work.
The next data set deals with rabbits. Conditions: cited from earlier work.
A further data set relates to rats. Conditions: intravenous administration; cited from earlier work.
Data set [4] deals with various experimental animals. Particulars: cited from earlier work.

Where two headings read alike, the source gives them in different places. Bounds are passed on as bounds.

Turning to `[Se]` [Selenium], the “Portion of selenium taken in with food that leaves the organism renally” value in [1] is 50-70%. Further, the “Formation of the interleukin-2 receptor, lymphocyte proliferation, cell-destroying effect of T-lymphocytes and natural killer cells” value in data set [2] was “increases”. Besides, the “Recommended maximum single oral dose” value in the data set with humans (in vivo, po) is “at most 50 μg of selenium/kg BW”. Further, in the data set with humans (in vivo), the “Dosage seen as harmless” value is given as “up to 500 μg of selenium a day”, the “Maximum safe ingestion over a longer time frame (WHO 1996)” value was 400 μg of selenium a day, the “Recommended maximum dose for long-term use” value is recorded as “at most 5 μg of selenium/kg BW” and the “Selenium content of whole blood from which symptoms can appear” value was ≥ 1000 μg/l of whole blood. Besides, in the data set with humans (in vivo), the “Selenium ingestion in areas with chronic selenium poisonings” value is given as 3-7 mg of selenium a day. For the same compound, under “concluded from the results”, the “Selenium substitution required (long-term, continuous)” value worked out at 1000 µg/day. The Tendency towards infection entry (higher versus reduced selenium level) is recorded as “reduced tendency towards infection”. Further, for the setting “human, in vivo”, the “Selenium level in the serum” value was “rose up into the reference range” and the “Selenium whole blood levels” value is recorded as “rose only to just below the reference range”.
Turning to `O=[Se](O)O` [sodium selenite], the LD50 in the data set with guinea pigs is given as 2.3 mg/kg BW; in the data set on mice (intravenous administration), 2.2 mg of selenium/kg BW; in the data set with mice (peroral administration) it was 3.2-3.5 mg/kg BW; with rabbits (intravenous administration) it was 0.9 mg/kg BW; with rabbits (peroral administration) it was 2.25 mg/kg BW; in the data set with rats it was 5.7 mg/kg BW. In addition, the “Absorption, average portion” value in data set [3] was 62±14%. Besides, in the data set on humans (four persons, 2 mg selenium a day for 20-40 days), the “Indications of selenium poisoning” value is reported as “did not result in any indications of selenium poisoning”. For the same compound, the Chronic toxicity with humans (in vivo) is 3-7 mg of selenium/day. Moreover, in the data set on humans (in vivo), the “Whole blood concentration at which first symptoms of poisoning manifest” value is listed as 1.05 mg of selenium/l whole blood. The “Dosage seen as harmless” value in the data set on humans (long-term use (longer than three months)) is given as “up to 550 μg of selenium a day”. The “Symptoms of selenium poisoning” value with humans (peroral 50 μg selenium per kg bodyweight over one year, patients with neuronal ceroid lipofuscinosis) is listed as “no symptoms of selenium poisoning were observed”. Also, in the data set with humans (person, 2 mg sodium selenite (900 μg selenium) daily for more than two years), the “Symptoms of chronic poisoning” value was “fingernails were thickened and brittle”. Further, in the data set with humans (person, approx. 27 mg selenium a day for approx. two months), the Symptoms of poisoning entry is “suffered from lassitude, nausea, vomiting, depression, bad breath, hair loss and nails that fell off”. The Acute toxicity in data set [4] is recorded as 1-5 mg of selenium per kg BW.
